According to patent publication US20030157715A1, “Modulation of chromosome function by chromatin remodeling agents” (priority 2000, published 2003):
Values joined by “and” are separate entries in the source; they are usually repeats but may differ in a detail not shown here. Identical values can stand only once.

What was measured:
[1] = system: bw^D/bw^D; Ubx^1/+ flies; assay: P31 fed to developing Ubx^1/+; bw^D flies; type: in vivo, Drosophila melanogaster
From the text: P31 enhances haltere-to-wing transformation in heterozygous bw^D/bw; Ubx^1/+ flies: The GAGA factor is know to bind to the promoter of Ubx and to stimulate its transcription in vitro (Biggin and Tjian, 1988) The Trl locus also genetically interacts with Ubx, since Trl^13C dominantly enhances the segmental transformation observed in Ubx heterozygotes. […] We asked, does P31 also chemically mimic the genetic interaction of Ubx and Trl^13C? To address this issue, we fed P31 to two genotypes, +/+; Ubx/+ and bw^D/bw^D; Ubx^1/+. The latter genotype was obtained by crossing bw^D/bw^D; st/st females and bw^D/bw^D Ubx^1/Tm3, sb males.
The progeny of these two genotypes raised in the presence of P31 were scored both for the A6 to A5 and the haltere-to-wing transformations as well as for the sex comb reduced phenotypes (Table 3). […] However, eight of them (out of approximately 100) reached a late pupae stage and thus could be dissected to inspect their morphology. […] This transformation was manifested by an enlarged size and gray color of the halteres, and also by the appearance of numerous bristles at the base of the halteres that are characteristic of the anterior wing margin. […] We conclude that the chemical mimicry by P31 in a bw^D genetic backgrounds extends to the genetic interaction of Trl^13C with Ubx.
(§1) The lethality of the progenies was calculated by counting the dead bodies and the total empty pupal shells. The A6 to A5 transformation was detected by bristles that form on abdominal segment A6 on males. All male adult flies obtained (˜50) were scored. Sex combs and halteres were individually inspected and photographed under the microscope (Axiophot, Zeiss) after dissecting at least 30 individuals and incubating them into 30 μl of 0.6 g/ml gum arabic; 4 g/ml chlorohydrate; 35% glycerol under a 24×24 mm coverslip as described (Ashburner, 1989). Since raising double heterozygous flies (Ubx^1/+; bw^D/+) led to lethality, we morphologically dissected eight late stage pupae after carefully removing the pupal envelope.

[2] = system: homozygous bw^D/bw^D flies; assay: P31 fed to developing homozygous brown-dominant flies; type: in vivo
Description: These experiments established a remarkable molecular interplay between the GAGAA insert of the bw^D allele and its target-compound P31.
Drug treatments of the bw^D flies were performed as for w^m4 flies except that 30 parental females were allowed to lay eggs. To obtain the heterozygous bw^D/+; st/st progeny, 30 virgin bw^D/bw^D; st/st homozygous females were mated with scarlet homozygous males for about 5 days before transferring them to experimental vials for egg laying.
as §1

[3] = system: CACAA repeats; assay: DNase I footprinting on CACAA repeats (Brown I probe); type: binding
From the text: A drawback of this binding model, as opposed to conventional 2:1 drug to DNA complexes, is that P31 is expected to bind degenerate GC and CG base pairs, albeit with different affinity. The consensus sequence can thus be defined as SWSWWSWSWW, where S stands for a G or C and W for A or T. To evaluate binding of P31 to CACAA repeats, we used a second probe that contains two of these repeats as well as five tandem GAGAA repeats. […] Again, it is observed than this molecule binds as a 1:1 drug to DNA complex in an orientation as indicated by arrowheads (FIG. 3A). We propose that special structural features of AT-tracts and GAGAA repeats might favor 1:1 DNA to drug complexes.
Synthetic oligonucleotides […] and […] were hybridized to obtain the W9 probe, oligomerized by ligation and digested with BamHI and BglII to obtain different tandem repeats. The following oligonucleotides were prepared identically: GAF31 is composed of the oligonucleotides […] and […] and, BrownI of oligonucleotides […] and […]. Fragments were purified on low-melt agarose gels and then cloned into a modified pSP64 vector, cut by BamHI and BglII. End-labeling was carried out following digestion with HindIII and a fill-in reaction with Klenow DNA polymerase. The labeled plasmid was cut with PvuII and the target fragments purified from low-melting agarose gels. […]

[4] = system: Drosophila histone SAR; assay: DNase I footprinting on SAR probe; type: binding
Description: (§2) Synthetic oligonucleotides […] and […] were hybridized to obtain the W9 probe, oligomerized by ligation and digested with BamHI and BglII to obtain different tandem repeats. The following oligonucleotides were prepared identically: GAF31 is composed of the oligonucleotides […] and […] and, BrownI of oligonucleotides […] and […]. Fragments were purified on low-melt agarose gels and then cloned into a modified pSP64 vector, cut by BamHI and BglII. End-labeling was carried out following digestion with HindIII and a fill-in reaction with Klenow DNA polymerase. The labeled plasmid was cut with PvuII and the target fragments purified from low-melting agarose gels. The 657 bp EcoR1/Hinf1 fragment of the Drosophila histone SAR was cloned into the SmaI site of the modified pSP64 plasmid. This SAR probe was end-labeled following-digestion with EcoR1, then cut with ClaI and the resulting 347 bp fragment purified from low-melting agarose gels.
(§3) All reactions were performed in a total volume of 40 μl. A polyamide stock solution or buffer (for reference lanes) was added to an assay buffer containing 20 kcpm radiolabeled DNA, affording final concentrations of 10 mM Tris-HCl (pH 7.4), 10 mM KCl, 10 MM MgCl, 5 mM CaCl2, 0.5 mM EDTA, 0.5 mM EGTA, 1 mM DTT and 0.1% digitonine. The solutions were allowed to equilibrate for at least 2 h at room temperature. Footprinting reactions were initiated by the addition of 2 μl of a DNase stock solution (containing −100 μg DNase I in buffer) and allowed to proceed for 2 min at room temperature. The reactions were stopped by addition of 10 μl of a solution containing 1.25 M NaCl, 100 mM EDTA. Next, 5 μl of a 1% SDS solution was added, followed by 2 μl of a solution containing 1 μg poly(dA-dT), 1 μg salmon sperm DNA and 10 μg glycogen and the DNA was ethanol precipitated (20 min at −20 C.). The reactions were resuspended in 4 μl of 80% formamide loading buffer, denatured 10 min at 85 C., cooled on ice and electrophoresed on 8% polyacrylamide denaturing gels (5% cross-link, 8 M urea) at 30 W for 1 h. The gels were dried and exposed o/n at −70 C.

[5] = molecular target: W9 probe (tandem repeats of an oligonucleotide with a 9 bp AT-tract); assay: DNase I footprinting on probe W9; type: binding
From the text: DNase I cleavage pattern in the presence of P9 and P7. Ligand concentrations are indicated at the top of each lane. The position of each of the AT-tracts is indicated by square brackets. […] This probe is composed of head-to-tail tandem repeats of an oligonucleotide with a 9 bp AT-tract.
as §2, §3

[6] = fly stock of r12, bw^D/bw^+, homozygous per text

SMILES: CN(C)CCCNC(=O)CCNC(=O)c1nc(NC(=O)CCNC(=O)c2nc(NC(=O)CCNC(=O)c3cc(NC(=O)c4nc(NC(=O)CCNC(=O)c5nccn5C)cn4C)cn3C)cn2C)cn1C [Compound P31, Im-β-Im-Py-β-Im-β-Im-β-Dp]
- pupae with clear signs of haltere-to-wing transformation ([1]; bw^D/bw^D, Ubx^1/+, dissected late pupae): five of eight
- A6 to A5 ([1]; fly stock Ubx^1/+, bw^D): 100%
- Lethality ([1]; fly stock Ubx^1/+, bw^D): 100%
- Sex comb (mean) ([1]; fly stock Ubx^1/+, bw^D): 7.4
- Sex comb, range of teeth ([1]; fly stock Ubx^1/+, bw^D): 5-9
- A6 to A5, number of bristles on A6 ([1]; fly stock Ubx^1/+, bw^D, dissected late pupae): 2-6
- effect on development (in words) ([1]; in vivo): blocked their development completely
- A6 to A5 [2, 6]: 100%
- Lethality [2, 6]: 66%
- Sex comb, range of teeth [2, 6]: 6-9
- Sex comb (mean) ([2]; fly stock of r12, bw^D/bw^+, text: homozygous): 7.2
- A6 to A5, number of bristles on A6 ([2]; fly stock of r12, bw^D/bw^+, text: homozygous bw^D males): 3-10
- sex comb teeth, number mostly found ([2]; homozygous bw^D): 6
- progeny that died at the pupal stage ([2]; homozygous bw^D flies): about two thirds
- Pupae delay (hrs) ([2]; in vivo): ≥ 65 hrs-∞
- delay of hatching ([2]; in vivo): 65 to 75 h
- affinity for CACAA repeats relative to GAGAA repeats [3]: approximately five fold lower affinity

SMILES: CN(C)CCCNC(=O)CCNC(=O)c1cc(NC(=O)c2cc(NC(=O)c3cc(NC(=O)CCNC(=O)c4cc(NC(=O)c5cc(NC(=O)c6cccn6C)cn5C)cn4C)cn3C)cn2C)cn1C [Compound P9, PyPyPy-β-PyPyPy-β-Dp]
- Ratio ([4]; Kdapp W9 / Kdapp SAR (SAR specificity factor)): 1.4
- Kd ([4]; apparent binding affinity, DNase I footprinting, SAR probe, read-out: Kdapp SAR): 0.55 nM
- affinity for AT-tracts of 9 Ws (in words) [5]: subnanomolar affinity
- better affinity for W9 than P7 ([5]; P9 versus P7, footprints on W9): 100 fold
- Kd ([5]; apparent binding affinity, DNase I footprinting, probe W9, read-out: Kdapp W9): ~0.75 nM and 0.75 nM
